From patent US12472224B2, “Ready-to-use bivalirudin compositions” (MAIA Pharmaceuticals, Inc., priority 2019, dated 2025)

Columns and labels:
[1] = Toxicokinetics of bivalirudin in satellite animals of the rat study (plasma concentrations); conditions: both sexes, Sprague-Dawley, in vivo, iv, 24 hours after termination of dosing, 7 out of 23 samples, all others below 50 ng/mL, read-out: plasma bivalirudin concentration at the 24-hour timepoint
Experimental: The infusion rate was 2.5 mL/kg/h for all groups. A separate set of satellite animals (6/sex/group) were administered the same set of materials and used for evaluating the toxicokinetics (TK) of bivalirudin at 5 minutes and 24 hours after termination of dosing (3 animals/sex/group/timepoint). See Table 16b for group allocation. All animals were sacrificed on Day 16, one day following the end of the 14-day infusion.
Mean plasma concentrations of bivalirudin at C5 were similar in males treated with the high-dose (250 mg/kg/day) of MAIA Bivalirudin Injection or Sandoz Bivalirudin, and only slightly lower (approximately 20% lower) in the female treated with MAIA Bivalirudin than in the females treated with Sandoz Bivalirudin. However, it must be noted that data are available from just one female for the MAIA product, due to premature deaths or inability to collect blood.

Whole human blood = experiment: Hemolysis study; format: cell-based
Experimental: Briefly, human whole blood was collected from a single donor (K2EDTA anticoagulant). The donor blood was analyzed for hemoglobin content in triplicate using an Advia 120 hematology analyzer. The dynamic mixing of drug infusate in human whole blood was simulated in this in vitro study by incubating the diluted test, reference and placebo items at a blood:formulation ratio of 1:0.75, corresponding to a final bivalirudin concentration of 2.14 mg/mL. Blood was mixed with either bivalirudin for injection as described herein, Angiomax®, a bivalirudin placebo, or 0.9% saline. The mixture as incubated at 37° C. (±5° C.) for 30 minutes. Negative controls containing only blood (whole blood control) or blood mixed with 0.9% saline at a blood:saline ratio of 1:0.75 (0.9% NaCl control) were also prepared. A positive control containing blood mixed 1:1 with 1% saponin was also prepared. All control tubes were incubated at 37° C. (±5° C.) for 30 minutes. […] During the incubation tubes containing the test and reference item mixed with saline were prepared to check if the test or reference item interfered with the absorbance readings. […] The percent hemolysis of each sample was calculated based on the hemoglobin content of the supernatant, expressed as a percentage of hemoglobin content of the donor sample, after correcting for dilution and interference from the sample, if any.

| Compound | level at 24 h [1] [ng/mL] | % Hemolysis (Whole human blood) [%] | % hemolysis (positive control) (Whole human blood) [%] |
| --- | --- | --- | --- |
| CC[C@H](C)[C@H](NC(=O)[C@H](CCC(=O)O)NC(=O)[C@H](CCC(=O)O)NC(=O)[C@H](Cc1ccccc1)NC(=O)[C@H](CC(=O)O)NC(=O)CNC(=O)[C@H](CC(N)=O)NC(=O)CNC(=O)CNC(=O)CNC(=O)CNC(=O)[C@@H]1CCCN1C(=O)[C@H](CCCNC(=N)N)NC(=O)[C@@H]1CCCN1C(=O)[C@H](N)Cc1ccccc1)C(=O)N1CCC[C@H]1C(=O)N[C@@H](CCC(=O)O)C(=O)N[C@@H](CCC(=O)O)C(=O)N[C@@H](Cc1ccc(O)cc1)C(=O)N[C@@H](CC(C)C)C(=O)O [bivalirudin] | 50.5 to 159 |  |  |
| saponin |  | 100.0 ± 0.8 | 100 |
